In ChEMBL document CHEMBL1134706, “Novel cytotoxic 7-iminomethyl and 7-aminomethyl derivatives of camptothecin” (Bioorg Med Chem Lett, 2001):

Columns and labels:
[1] = In vivo antitumor activity in NSCLC H460 xenografted sc in athymic nude mice expressed as percent Body weight loss (BWL) at a dose of 2 mg/kg orally for q4dx4; assay type: functional, Mus musculus; details: route oral
[2] = In vivo antitumor activity in NSCLC H460 xenografted sc in athymic nude mice expressed as percent tumor volume inhibition (TVI) at a dose of 2 mg/kg perorally for q4dx4; assay type: functional, Mus musculus; details: route oral
[3] = In vivo antitumor activity in NSCLC H460 xenografted sc in athymic nude mice expressed as percent Tumor volume inhibition (TVI) at a dose of 18 mg/kg perorally for q4dx4; assay type: functional, Mus musculus; details: route oral
[4] = In vivo antitumor activity in NSCLC H460 xenografted sc in athymic nude mice expressed as percent Tumor volume inhibition (TVI) at a dose of 6 mg/kg perorally for q4dx4; assay type: functional, Mus musculus; details: route oral
[5] = Partition coefficient (logP); assay type: physicochemical; details: octanol/water
[6] = In vivo antitumor activity in NSCLC H460 xenografted sc in athymic nude mice expressed as percent Body weight loss (BWL) at a dose of 6 mg/kg orally for q4dx4; assay type: functional, Mus musculus; details: route oral
NCI-H460 = assay: In vitro cytotoxicity against H460 a human non-small lung carcinoma cell line after 1 hour drug exposure; assay type: functional, cell-based; details: NCI-H460, 1 h
[7] = In vivo antitumor activity in NSCLC H460 xenografted sc in athymic nude mice expressed as percent Body weight loss (BWL) at a dose of 18 mg/kg orally for q4dx4; assay type: functional, Mus musculus; details: route oral
[8] = In vivo antitumor activity in NSCLC H460 xenografted sc in athymic nude mice expressed as percent Body weight loss (BWL) at a dose of 15 mg/kg orally for q4dx4; assay type: functional, Mus musculus; details: route oral
[9] = In vivo antitumor activity in NSCLC H460 xenografted sc in athymic nude mice expressed as percent tumor volume inhibition (TVI) at a dose of 15 mg/kg perorally for q4dx4; assay type: functional, Mus musculus; details: route oral

Row | SMILES | logP [5] | IC50 (NCI-H460) [nM] | other results
1 | CC[C@@]1(O)C(=O)OCc2c1cc1n(c2=O)Cc2c-1nc1ccccc1c2/C=N/c1ccccc1 | 3.19 | 130 | BWL [1]: 2%; TVI [2]: 33%; TVI [3]: 89%; TVI [4]: 51%; BWL [6]: 7%; BWL [7]: 1%
2 | CC[C@@]1(O)C(=O)OCc2c1cc1n(c2=O)Cc2c-1nc1ccccc1c2/C=N/Cc1ccccc1 | 3.26 | 280 | 
3 | CC[C@@]1(O)C(=O)OCc2c1cc1n(c2=O)Cc2c-1nc1ccccc1c2/C=N/CCN(C)C | 1.53 | 120 | 
4 | CC[C@@]1(O)C(=O)OCc2c1cc1n(c2=O)Cc2c-1nc1ccccc1c2CNC1CCCCC1 | 2.44 | 350 | 
5 | CC[C@@]1(O)C(=O)OCc2c1cc1n(c2=O)Cc2c-1nc1ccccc1c2/C=N/C1CCCCC1 | 3.08 | 370 | 
6 | CC[C@@]1(O)C(=O)OCc2c1cc1n(c2=O)Cc2c-1nc1ccccc1c2/C=N/CCCCO | 1.57 | 360 | 
7 | CC[C@@]1(O)C(=O)OCc2c1cc1n(c2=O)Cc2c-1nc1ccccc1c2/C=N/N=C(N)N | 0.67 | 39300 | 
8 | CC[C@@]1(O)C(=O)OCc2c1cc1n(c2=O)Cc2c-1nc1ccccc1c2CNc1ccccc1 | 2.56 | 310 | 
9 | CC[C@@]1(O)C(=O)OCc2c1cc1n(c2=O)Cc2c-1nc1ccccc1c2/C=N/c1ccc([N+](=O)[O-])cc1 | 2.34 | 280 | 
10 | CC[C@@]1(O)C(=O)OCc2c1cc1n(c2=O)Cc2c-1nc1ccccc1c2CN | 0.37 | 2370 | 
11 | CC[C@@]1(O)C(=O)OCc2c1cc1n(c2=O)Cc2c-1nc1ccccc1c2CN=C(N)N | -0.79 | 12600 | 
12 | CC[C@@]1(O)C(=O)OCc2c1cc1n(c2=O)Cc2c-1nc1ccccc1c2CNCCN(C)C | 0.89 | 450 | 
13 | CC[C@@]1(O)C(=O)OCc2c1cc1n(c2=O)Cc2cc3c(CN(C)C)c(O)ccc3nc2-1 [TOPOTECAN] |  | 1380 | BWL [8]: 12%; TVI [9]: 95%
